The conditions of data set [1]: cited from earlier work.
The conditions of data set [2]: cited from earlier work. The source holds these as a separate data set.
The conditions of data set [3]: cited from earlier work. This is another data set of the same source.
Data set [4] can be described thus: Transdermal diffusion (cumulative flux) through rat skin samples. The following applies: rat skin samples of different ages, or rat versus human skin.
For data set [5] the following is noted: saturated donor solution in water, receptor pH 7.4, 37° C., 0-26 hrs; compared to human, rat, pig skin.
For data set [6] the following is noted: cited from earlier work. This is another data set of the same source.
For data set [7] the following is noted: separate human skin samples compared.
Data set [8] in a line: Transdermal diffusion, vertical Franz Cell, untreated membrane. The class given is in vitro ADME. To be noted: saturated donor solution in water, Sorensen's buffer pH 7.4 receptor, 37° C., 0-26 hrs. The method, then: Conditions for HPLC analysis of flufenamic acid are as noted below: Column Used: Zorbax XDB C18, 3.9 mm×150 mm, 5 μm Mobile Phase Used: 90% Methanol+10% water containing 40 mM acetic acid; Detection wavelength: 280 nm.

Each structure is given as a SMILES string. Like-named read-outs stand apart in the source and are kept apart here.

With `CN1CCCC1c1cccnc1` (stereo not shown) [Nicotine], the “Log D (pH 7.4)” value in data set [1] is listed as 0.02. In addition, the “Log P” value in data set [2] is given as 0.72. Further, the “Aqueous Solubility, LogS” value in data set [3] is −0.24. Also, the “diffusion (cumulative flux) through rat skin” value in data set [4] was “variability between the rat and human skin samples”.
As to `CC(C(=O)O)c1ccc(-c2ccccc2)c(F)c1` (stereo not shown) [Flurbiprofen], the “Log D (pH 7.4)” value in data set [1] is 0.98. Further, the “Log P” value in data set [2] was 4.115. In addition, in data set [3], the “Aqueous Solubility, LogS” value was −4.49.
On to `Clc1ccccc1C(c1ccccc1)(c1ccccc1)n1ccnc1` [Clotrimazole], for which the “diffusion (cumulative flux) across treated membrane relative to skin” value in data set [5] was “high degree of correlation with human skin”. Besides, the “Log P” value in data set [2] is listed as 6.1. In data set [3], the “Aqueous Solubility, LogS” value was −5.37.
In the case of `CCCCNc1ccc(C(=O)OCCN(C)C)cc1` [Tetracaine], the pKa in data set [6] is on record as 8.24. The “Log D (pH 7.4)” value in data set [1] is given as 2.75. Also, the lipophilicity (Log P) in data set [2] is recorded as 3.649. Moreover, the “Aqueous Solubility, LogS” value in data set [3] is −2.75.
In the case of `COc1cc(Cc2cnc(N)nc2N)cc(OC)c1OC` [Trimethoprim], in data set [3], the “Aqueous Solubility, LogS” value is reported as −2.67.
`C[C@]12CCC(=O)C=C1CC[C@@H]1[C@@H]2[C@@H](O)C[C@@]2(C)[C@H]1CC[C@]2(O)C(=O)CO` [Hydrocortisone]: the pKa in data set [6] is listed as 12.48. Further, the “Log P” value in data set [2] is 1.462. Besides, the “diffusion (cumulative flux) through rat skin” value in data set [4] is on record as “does not appear to show a high degree of correlation with human skin”.
Regarding `Oc1cc(Cl)ccc1Oc1ccc(Cl)cc1Cl` [Triclosan/Irgasan, Triclosan], the “Log P” value in data set [2] is 4.76.
In the case of `CC(=O)Oc1ccccc1C(=O)O` [Acetyl Salicylic Acid (Aspirin), Acetyl Salicylic Acid], the “Log D (pH 7.4)” value in data set [1] is reported as −1.89.
As to `O=C(c1ccccc1)c1ccc2n1CCC2C(=O)O` (stereo not shown) [Ketorolac], the “Aqueous Solubility, LogS” value in data set [3] was −2.7.
`O=C(O)Cc1ccccc1Nc1c(Cl)cccc1Cl` [Diclofenac]: the “Log D (pH 7.4)” value in data set [1] is given as 0.95. Further, the “Log P” value in data set [2] is listed as 4.05.
As for `COC(=O)c1ccc(O)cc1` [Methyl paraben, methyl p-hydroxybenzoate], the “diffusion (cumulative flux) through separate human skin samples” value in data set [7] is recorded as “high degree of variability between the different human skin samples”.
`O=C(O)c1ccccc1Nc1cccc(C(F)(F)F)c1` [Flufenamic Acid]: the “Log P” value in data set [2] is recorded as 5.2. In addition, in data set [8], the “diffusion (cumulative flux) across untreated membrane relative to human skin” value was “better correlation to human skin than the treated membrane”.
For `C[C@@H]1C[C@H]2[C@@H]3CCC4=CC(=O)C=C[C@]4(C)[C@@]3(F)[C@@H](O)C[C@]2(C)[C@@]1(O)C(=O)CO` [Dexamethasone], in data set [6], the pKa is reported as 12.14. In addition, the “diffusion (cumulative flux) across treated membrane relative to skin” value in data set [5] was “diffusion similar to human and pig skin”. For the same compound, the “Log P” value in data set [2] is listed as 1.869; in data set [2] (listed as dexamethasone), 1.896. Moreover, in data set [3], the “Aqueous Solubility, LogS” value was −3.89.
On to `CN(C)CCCN1c2ccccc2Sc2ccc(Cl)cc21` [Chlorpromazine], for which, in data set [1], the “Log D (pH 7.4)” value was 3.22. Also, in data set [2], the “Log P” value is 5.203. Further, in data set [3], the “Aqueous Solubility, LogS” value is −5.01.

One may read the Log P as the decadic logarithm of the partition coefficient of the neutral form, usually between octanol and water. For orientation: pKa means the pH at which an ionisable group is half protonated.
